Consider seven compounds from PubChem BioAssay (NCI).

Where “and” joins values, the source holds several entries; their conditions need not be identical. Identical values can stand only once.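 Assay format: 96-well plates, 48-hour exposure. GI50: concentration for 50% inhibition of growth. Definition used: TGI = concentration required for complete inhibition of growth.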 Some results are limits rather than exact numbers.

Among the test systems are IGROV1 ovarian; TK-10 renal; DU-145 prostate; ACHN renal; NCI-H460 lung; EKVX NSCLC; MCF7 breast; CAKI-1 renal; UACC-257 melanoma; RXF 393 renal.
Holding throughout (assay): growth of human tumour cells (NCI), 48 h

On to `C[n+]1cccc(NC(=O)c2ccc3ccc4ccc(C(=O)Nc5ccc[n+](C)c5)nc4c3n2)c1`, for which the GI50 was 1.51 µM in the experiment on IGROV1 ovarian; 53.7 µM with TK-10 renal; 0.376 µM in the experiment with DU-145 prostate; 4.75 µM in the experiment with ACHN renal; 0.149 µM with NCI-H460 lung; 5.08 µM in the experiment on EKVX NSCLC. For the same compound, the GI50 with MCF7 breast was 2.35 µM; with CAKI-1 renal, 4.93 µM; with UACC-257 melanoma, > 100 µM; in the experiment on RXF 393 renal, 1.98 µM. The TGI is > 100 µM in the experiment with IGROV1 ovarian; > 100 µM in the experiment with TK-10 renal; 15.6 µM in the experiment on DU-145 prostate; > 100 µM in the experiment on ACHN renal; 3.42 µM in the experiment on NCI-H460 lung; > 100 µM with EKVX NSCLC. Also, the TGI in the experiment on MCF7 breast was > 100 µM; in the experiment on CAKI-1 renal, > 100 µM; with UACC-257 melanoma it was > 100 µM; in the experiment with RXF 393 renal, 4.75 µM.
On to `Cn1c2c(c3ccccc31)CCN1C[C@@H]3CCCC[C@H]3C[C@@H]21`, for which the GI50 was 3.45 µM with IGROV1 ovarian; 3.01 µM in the experiment with TK-10 renal; 2.36 µM with DU-145 prostate; 4.32 µM in the experiment with ACHN renal; 3.34 µM with NCI-H460 lung; 5.57 µM in the experiment on EKVX NSCLC. The GI50 with MCF7 breast is 3.17 µM; in the experiment with CAKI-1 renal, 2.92 µM; with UACC-257 melanoma it was 8.14 µM; in the experiment with RXF 393 renal it was 0.964 µM. Further, the TGI is > 54.6 µM in the experiment with IGROV1 ovarian; 23.2 µM in the experiment on TK-10 renal; 5.8 µM with DU-145 prostate; > 100 µM with ACHN renal; > 36.1 µM with NCI-H460 lung; > 100 µM in the experiment on EKVX NSCLC. Also, the TGI in the experiment on MCF7 breast was > 72.8 µM; in the experiment on CAKI-1 renal it was > 29.5 µM; with UACC-257 melanoma it was > 100 µM; in the experiment with RXF 393 renal, 7.47 µM.
Turning to `Nc1nc2ccc(CNc3ccc(C(=O)NC(CC(=O)O)C(=O)O)cc3)cc2c(=O)[nH]1` (centres undefined), the GI50 in the experiment on IGROV1 ovarian was 3.32 µM; in the experiment with TK-10 renal it was > 100 µM; with DU-145 prostate, 1.58 µM; in the experiment with ACHN renal, 3.6 µM; in the experiment with NCI-H460 lung, 0.593 µM; in the experiment on MCF7 breast, 1.2 µM. For the same compound, the GI50 is 1.37 µM in the experiment with CAKI-1 renal, > 100 µM in the experiment with UACC-257 melanoma and > 34.7 µM in the experiment with RXF 393 renal. Besides, the TGI with IGROV1 ovarian, with TK-10 renal, with DU-145 prostate, in the experiment on ACHN renal, in the experiment with NCI-H460 lung and in the experiment on EKVX NSCLC was > 100 µM each time. Besides, the TGI with MCF7 breast, with CAKI-1 renal, with UACC-257 melanoma and in the experiment with RXF 393 renal was > 100 µM throughout.
As to `COc1ccc2c(c1)OCC1c3cc(OC)c4ccccc4c3OC21` (centres undefined), the GI50 with IGROV1 ovarian was 4.98 µM; in the experiment on TK-10 renal, 11.8 µM; in the experiment with DU-145 prostate it was 18.8 µM; with ACHN renal, 27.4 µM; with NCI-H460 lung, 4.44 µM; in the experiment with EKVX NSCLC, 25.1 µM. For the same compound, the GI50 with MCF7 breast is 3.59 µM; in the experiment with CAKI-1 renal it was 5.05 µM; in the experiment with UACC-257 melanoma, 35.5 µM; in the experiment with RXF 393 renal, 9.41 µM. Moreover, the TGI in the experiment on IGROV1 ovarian is 21.6 µM; with TK-10 renal, 53.9 µM; with DU-145 prostate, > 100 µM; in the experiment on ACHN renal it was > 100 µM; in the experiment with NCI-H460 lung, > 100 µM; in the experiment on EKVX NSCLC, > 100 µM. In addition, the TGI in the experiment on MCF7 breast was > 100 µM; with CAKI-1 renal it was 44.9 µM; with UACC-257 melanoma it was > 100 µM; with RXF 393 renal it was 46 µM.
Regarding `Cc1c(O)cccc1C(=O)N[C@@H](CSc1ccccc1)[C@H](O)CN1C[C@H]2CCCC[C@H]2C[C@H]1C(=O)NC(C)(C)C`, the GI50 in the experiment with IGROV1 ovarian is 3.45 µM and 2.62 µM; in the experiment with TK-10 renal, 4.26 µM and 5.89 µM; with DU-145 prostate it was 6.58 µM and 8.27 µM; in the experiment with ACHN renal, 3.02 µM and 5.69 µM; with NCI-H460 lung, 3.48 µM and 4.79 µM; in the experiment with EKVX NSCLC, 4.86 µM and 6.92 µM. Besides, the GI50 in the experiment with MCF7 breast was 6.22 µM and 3.9 µM; with CAKI-1 renal it was 2.57 µM and 9.32 µM; with UACC-257 melanoma it was 3.66 µM and 6.84 µM; in the experiment on RXF 393 renal, 1.96 µM and 2.91 µM. The TGI is 32 µM and 7.74 µM in the experiment on IGROV1 ovarian; 23.6 µM and 24.5 µM in the experiment on TK-10 renal; 25.2 µM and 31.8 µM with DU-145 prostate; 13.1 µM and 17.1 µM in the experiment with ACHN renal; 13.8 µM and 11.4 µM with NCI-H460 lung; 38 µM and > 43.4 µM with EKVX NSCLC. Also, the TGI in the experiment on MCF7 breast is 24.4 µM and 15.7 µM; in the experiment on CAKI-1 renal, 6.56 µM and > 37.8 µM; in the experiment on UACC-257 melanoma it was 13.8 µM and 24.7 µM; with RXF 393 renal, 4.26 µM and 6.37 µM.
As for `Cc1[nH]c(C(=O)Nc2cccc(OC3CCNCC3)c2)c(Cl)c1Cl`, the GI50 in the experiment on IGROV1 ovarian is 1.76 µM; with TK-10 renal, 1.94 µM; in the experiment with DU-145 prostate it was 1.89 µM; with ACHN renal, 1.75 µM; with NCI-H460 lung, 1.95 µM; with EKVX NSCLC it was 1.57 µM. The GI50 with MCF7 breast is 1.5 µM; with CAKI-1 renal it was 1.82 µM; with UACC-257 melanoma it was 1.76 µM; in the experiment on RXF 393 renal it was 1.74 µM. Also, the TGI in the experiment with IGROV1 ovarian was determined as 3.37 µM; with TK-10 renal, 3.7 µM; with DU-145 prostate, 3.52 µM; in the experiment on ACHN renal, 3.17 µM; with NCI-H460 lung it was 3.7 µM; in the experiment on EKVX NSCLC it was 3.39 µM. Further, the TGI in the experiment on MCF7 breast was found to be 3.05 µM; in the experiment on CAKI-1 renal it was 3.39 µM; in the experiment with UACC-257 melanoma it was 3.55 µM; with RXF 393 renal, 3.46 µM.
For `CC1(C)CC[C@]23CC[C@]4(C)[C@H](CC[C@@H]5[C@@]6(C)CCCNC(C)(C)[C@@H]6CC[C@]54C)[C@H]2[C@H]1OC3`, the GI50 with IGROV1 ovarian was 1.79 µM; with TK-10 renal, 1.89 µM; with DU-145 prostate it was 1.74 µM; in the experiment on ACHN renal, 1.71 µM; in the experiment on NCI-H460 lung, 0.646 µM; in the experiment on EKVX NSCLC, 1.68 µM. The GI50 was 1.44 µM in the experiment on MCF7 breast, 1.62 µM in the experiment with CAKI-1 renal, 1.92 µM in the experiment with UACC-257 melanoma and 1.56 µM in the experiment with RXF 393 renal. Besides, the TGI turned out to be 3.48 µM in the experiment with IGROV1 ovarian; 3.61 µM in the experiment on TK-10 renal; 3.23 µM in the experiment on DU-145 prostate; 3.08 µM in the experiment on ACHN renal; 2.2 µM in the experiment on NCI-H460 lung; 3.37 µM in the experiment with EKVX NSCLC. In addition, the TGI in the experiment with MCF7 breast worked out at 3.01 µM; with CAKI-1 renal, 2.97 µM; with UACC-257 melanoma, 3.87 µM; in the experiment on RXF 393 renal, 2.98 µM.
